In patent publication US20040072746A1, “Inhibitors of monocarboxylate transport” (priority 2001, published 2004):
pIC50: −log10 of the molar value. Like-named read-outs stand apart in the source and are kept apart here.

How the values were obtained:
[1] = test system: activated T-lymphocytes; test: Extracellular lactate levels in activated T-lymphocytes (lactate oxidase); format: cell-based, human
Procedure: (§1) PBMCs were prepared as described above by separation over Lymphoprep and T-lymphocytes were then enriched by purification on a nylon wool column. Briefly, 0.6 g nylon wool was inserted into a 10 ml syringe and this was autoclaved. […] The PBMC were resuspended in 1 ml of pre-warmed RPMI (20% HS) and were loaded onto the nylon wool column. The column was incubated for 45 min at 37° C. followed by elution of the T-cells by adding 10 ml RPMI (20% HS) (prewarmed to 37° C.) dropwise to the column. The T-cells obtained from the elution of the column were centrifuged (850 g for 5 min) and resuspended in RPMI containing L-glutamine and 5% human serum and stimulated with 0.5 ng/ml PMA and 500 ng/ml lonomycin for 48 h.
20 μl of each concentration were added to triplicate wells of a 96-well plate. T-cells were then added (200 μl per well, 2×10^5 cells) and were cultured for 4 h under standard cell culture conditions. The cell supernatants were collected from each well after the cells were pelleted by centrifugation of the plate at 850 g for 5 min at 4° C. 10 μl of each supernatant sample were used for the lactate determination.
(§2) The assay was carried out in 96-well plates at room temperature. 10 μl of standard or sample were added to each well followed by 200 μl of the Lactate Reagent. […] The data were collected and analysed using SOFTmax PRO software (Molecular Devices).

[2] = test system: activated T-lymphocytes; test: Intracellular lactate levels in activated T-lymphocytes (lactate oxidase); format: cell-based; conditions: Homo sapiens, T-lymphocyte; Mean±s.e.mean (mean±range for n=2); read-out: pIA50 Intracellular Lactate (converted)
Procedure: as §1
100 μl of each concentration were added to triplicate wells of a 24-well plate. T-cells were then added (1 ml per well) and were cultured for 4 h under standard cell culture conditions. The cells were then transferred from each well to microfuge tubes and were centrifuged at 360 g for 5 min at 4° C. The supernatant was discarded and the cell pellet was resuspended in 1 ml of ice-cold PBS, pH5.0. The cells were washed twice in PBS by centrifugation (360 g, 5 min, 4° C.) followed by resuspension of the cell pellet in 100 μl deionized water. The cells were incubated for 15 min at 4° C. to allow cell lysis to occur and the cell debris was removed by centrifugation at 15000 g for 10 min at 4° C. 10 μl of each supernatant sample were used for the lactate determination.
as §2

[3] = test system: IgE production; test: Inhibition of murine antibody production, IgE (ovalbumin immunised); format: in vivo, Balb/c mice; conditions: 10 days following antigenic boost
Procedure: Balb/c mice were immunised with 0.5 mg/kg ovalbumin (OVA) and 200 mg/kg aluminium hydroxide gel in saline intraperitoneally and left for 29 days before being re-challenged intraperotoneally with 0.5 mg/kg ovalbumin in buffered saline vehicle and left for a further 10 days. Compound was dosed daily from re-challenge to termination prior to serum collection. Control groups were dosed with compound vehicle only. On completion of dosing, serum samples were taken from the mice and analysed for total and specific levels of IgE.
For total IgE, microtitre plates were coated with 5 ug/ml monoclonal rat anti-mouse IgE in phosphate buffered saline (PBS) and incubated overnight at 4° C. The plates were then washed four times with PBS containing 0.05% Tween 20 and then blocked with 1% BSA in PBS at room temperature for 2 hours. This was followed by two further plate washings.
The serum samples and IgE standards were added to the wells in duplicate and incubated overnight. The plates were then washed a further four times before adding 50 ul biotinylated monoclonal rat anti-mouse IgE appropriately diluted in 0.1% BSA in PBS for 2 hours. The plate was washed for a further four times before adding 50 ul streptavidin alkaline phosphatase conjugate appropriately diluted in 1% BSA in PBS at room temperature for 50 minutes. The plate was washed a further four times before enzyme substrate (paranitrophenyl phoshate in 1M diethanolamine buffer pH 9.8) at 1 mg/ml was added. Once the colour reaction developed, the plate was read at 405 nm. Levels of total IgE in serum samples were extrapolated from curve obtained with IgE standards.
For specific IgE, the methodology was similar except for the following. The microtitre plates were coated with 50 ug/ml rat anti-mouse IgE. The serum samples or normal control sera were added to the washed plates. Biotinylated OVA diluted in 0.1% BSA in PBS was used as enzyme marker.

[4] = test system: IgG2a production; test: Inhibition of murine antibody production, IgG2a (ovalbumin in poly I:C); format: in vivo, Balb/c mice; conditions: Mus musculus, sc, 168 h, subcutaneous, 7 days following antigenic boost
Procedure: To measure the effect of the compound on IgG2a production, Balb/c mice were immunised with ovalbumin in poly I:C adjuvant (polyinosinic:polycytidylic acid adjuvant) and left for 14 days before being re-challenged with ovalbumin in buffered saline vehicle and left for a further 7 days. Serum samples were taken from the mice and analysed for total and specific IgG2a. Compound was dosed daily from re-challenge to termination prior to serum collection. For total IgG2A, microtitre plates were coated with 5 ug/ml of goat anti-mouse IgG2a in PBS and incubated overnight at 4° C. The plates were then washed four times with PBS containing 0.05% Tween 20 and then blocked with 1% BSA at room temperature for 2 hours. This was followed by two further plate washings. The serum samples and IgG2a standards were added to the wells in duplicate and incubated at 4° C. overnight. The plates were then washed a further four times before adding 50 ul alkaline phosphatase conjugated goat anti-mouse IgG appropriately diluted in 0.1% BSA in PBS and left at room temperature for an hour. The plate was washed a further four times before enzyme substrate (p-nitrophenyl phosphate in 1M diethanolamine buffer pH 9.8) at 1 mg/ml was added. Once the colour reaction developed, the absorbance of the wells at 405 nm was read in a spectrophotometer. […]

[5] = molecular target: T1, MCT1 with a streptavidin-binding sequence tag (Homo sapiens, UniProt P53985, D490E); test: Yeast membrane MCT1-strep tagged SPA assay (125I ligand A); conditions: 0.1 nM 125I ligand A
T1 construct: The invention is not restricted to the use of full-length native human MCTs; made in house; host or cells: Saccharomyces cerevisiae BY4742 (jen1 deletion), membrane preparation; plasmid pACES14-MCT1-strep tag
T1 sequence (P53985 1-500 D490E): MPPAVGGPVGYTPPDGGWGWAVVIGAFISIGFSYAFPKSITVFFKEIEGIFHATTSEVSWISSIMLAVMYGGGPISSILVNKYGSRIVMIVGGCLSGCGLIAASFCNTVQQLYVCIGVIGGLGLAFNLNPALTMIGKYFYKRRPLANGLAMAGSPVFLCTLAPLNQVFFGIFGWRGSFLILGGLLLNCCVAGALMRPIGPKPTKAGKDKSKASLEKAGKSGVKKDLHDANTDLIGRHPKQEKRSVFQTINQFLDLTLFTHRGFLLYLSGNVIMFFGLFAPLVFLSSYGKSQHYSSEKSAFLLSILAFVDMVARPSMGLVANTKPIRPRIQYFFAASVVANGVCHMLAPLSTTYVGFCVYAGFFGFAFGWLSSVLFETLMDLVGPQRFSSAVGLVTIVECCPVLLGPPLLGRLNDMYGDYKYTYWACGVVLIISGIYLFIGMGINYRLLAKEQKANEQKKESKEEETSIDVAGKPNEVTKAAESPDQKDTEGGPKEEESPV
Procedure: Yeast membranes expressing MCT1 with a streptavidin-binding sequence tag were then added to give a final concentration of 37 μg/ml protein and gently rolled for >30 minutes at room temperature. The beads/membranes were then washed by centrifugation at ˜650 g for 10 minutes and resuspended in assay buffer+0.05% BSA. The washing was repeated once before resuspended in the appropriate volume of assay buffer+0.05% BSA.
Finally, 80 μl of the membrane/bead suspension was added to each well. […] The raw counts were analysed by averaging replicates, subtraction of non-specific binding and the subsequent calculation of % inhibition of binding of the iodinated ligand.

[6] = molecular target: T2, MCT1 (Homo sapiens, UniProt P53985, D490E); test: Yeast expressed MCT1 filter binding assay (competition with 3H-ligand C); set-up: The invention is not restricted to the use of full-length native human MCTs; made in house; host or cells: Saccharomyces cerevisiae BY4742 (jen1 deletion), membrane preparation; plasmid pACES14-hMCT1; conditions: yeast membrane MCT1 filter binding, 2.5 nM 3H-ligand C
T2 sequence (P53985 1-500 D490E): T1 sequence (P53985 1-500 D490E)
Procedure: Assay to Measure the Potency of Selected Compounds Using a Filter Binding Assay
Competition assays can be used to measure the affinity of unlabelled compound for MCT1. […] 180 μl of yeast membranes expressing MCT1 in assay buffer containing typically 0.5 to 1 μg total protein was added to start the reaction. […] The competition assay was incubated at 2 hours at room temperature with shaking. Experimental data points were usually carried out in triplicate. The membranes were harvested onto GF-B filter plates and washed with assay buffer without BSA, dried, scintillant added and counts detected using a tritium program on a Packard Top Count plate reader. The results were analysed by subtraction of the non-specific binding from each of the experimental points and then fitting a sigmoidal curve through a semi-log plot of the data in Microcal Origin.

[7] = test system: activated T-lymphocytes; test: DNA synthesis ([3H]-thymidine incorporation) in activated T-lymphocytes; format: cell-based; conditions: Homo sapiens, T-lymphocyte; Mean±s.e.mean (mean±range for n=2); read-out: pIA50 DNA (converted)
Procedure: as §1
DNA synthesis was assessed by measuring the incorporation of [^3H]-thymidine. The assay was carried out in a 96-well plate. 20 μl of test compounds at 10× the final concentration were added to the plate followed by 200 μl of T-cells per well (2×10^5 cells). The cells were cultured for 4 h under standard cell culture conditions and cultures were pulsed with ^3H-thymidine (0.5 μCi/well; Amersham) for the final hour of the incubation.

[8] = test system: peripheral blood mononuclear cells (PBMC); test: T-lymphocyte proliferation, PMA/ionomycin stimulated PBMC, 3 days; conditions: Homo sapiens, 72 h, read-out: pIA50 Proliferation (3 days) (converted)
Text: The cell signalling pathways triggered by T-cell activation through the T cell receptor and CD28 can be mimicked in vitro using a phorbol ester, phorbol 12-myristate 13-acetate (PMA), which activates protein kinase C, and ionomycin, which induces calcium release from internal cellular stores. PMA and ionomycin-stimulated proliferation of peripheral blood mononuclear cells (PBMC), of which the predominant cell type is T-lymphocytes, provides a suitable assay for measuring the ability of small molecules to block T-cell proliferation.
Blood was centrifuged at 850 g for 10 minutes and the plasma was removed. […] The blood/Lymphoprep layers were centrifuged at 850 g for 20 minutes at 18° C. (with no brake).
10 μl of compound in solution was then added to the 96-well flat bottom assay plate (final volume of 200 μl). […] Both were diluted to 4× the final assay concentration in complete medium. 50 μl of each reagent was dispensed per well to give a final assay concentration of 0.5 ng/ml PMA and 500 ng/ml ionomycin. Control wells received 100 μl cells with PMA only (negative control 1), with ionomycin only (negative control 2) and 100 μl cells with 50 μl PMA and 50 μl ionomycin with no test compound (positive control). 100 μl complete medium was added to the negative controls. […]

## CC(C)Cn1c(=O)n(C)c(=O)c2c(SCCCO)c(Cc3cccc4ccccc34)sc21 [Ligand 1, 5-[(3-hydroxypropyl)thio]-3-methyl-1-(2-methylpropyl)-6-(1-napthalenylmethyl)thieno[2,3-d]pyrimidine-2,4(1H,3H)-dione]
[1]
  maximum level of inhibition, extracellular lactate: 30±1.9%
[2]
  EC50: 0.407 nM
[3]; 3 mg/kg subcutaneous
  inhibition of OVA specific IgE: 64%
  inhibition of total IgE: 67%
[3]; 30 mg/kg subcutaneous
  inhibition of OVA specific IgE: 53%
  inhibition of total IgE: 84%
[4]; read-out: ED50, specific IgG2a production
  ED50: 10 mg/kg
[4]; read-out: ED50, total IgG2a production
  ED50: 30 mg/kg

## CC(C)Cn1c(=O)n(C)c(=O)c2cc(Cc3ccnc4ccccc34)sc21 [Ligand 3, 6-(4-quinolinylmethyl)--3-methyl-1-(2-methylpropyl)-thieno[2,3-d]pyrimidin-2,4(1H,3H)-dione]
[5]
  pIC50: 7.81
[6]
  pIC50: 6.98

## CC(C)Cn1c(=O)n(C)c(=O)c2cc(Cc3nc4ccccc4s3)sc21 [Ligand 4, 6-([benzothiazol-2-yl]methyl)-3-methyl-1-(2-methylpropyl)thieno[2,3-d]pyrimidine-2,4(1H,3H)-dione]
[5]
  pIC50: 7.49
[6]
  pIC50: 6.10

## CON(C)C(=O)c1c(Cn2c(C)nc(Cl)c2Cl)sc2c1c(=O)n(C)c(=O)n2CC(C)C [Ligand 5, 6-[(4,5-Dichloro-2-methyl-1H-imidazol-1-yl)methyl]-1,2,3,4-tetrahydro-N-methoxy-N,3-dimethyl-1-(2-methylpropyl)-2,4-dioxo-thieno[2,3-d]pyrimidine-5-carboxamide]
[7]
  IC50: 2.69 nM
[1]; Homo sapiens, T-lymphocyte, Mean±s.e.mean (mean±range for n=2), read-out: pIA50 Extracellular Lactate (converted)
  IC50: 3.8 nM
[2]
  EC50: 2.29 nM
[8]
  IC50: 1.66 nM
